Laboratory results from patent publication US9656988B2 (Pharmacyclics LLC, priority 2013, dated 2017).
Read-outs that look alike come from different tables or passages of the source.

Target: BTK (Homo sapiens (Human), UniProt Q06187)
Assay: Btk in vitro inhibitory activity (one of Method A TR-FRET, Method B electrophoretic mobility shift, Method C radiometric filter binding)
Format: biochemical
[1] = determined using one of the methods of Example 355a, 355b and 355c, read-out: BTK IC50

BTK, sequence (Q06187 whole entry): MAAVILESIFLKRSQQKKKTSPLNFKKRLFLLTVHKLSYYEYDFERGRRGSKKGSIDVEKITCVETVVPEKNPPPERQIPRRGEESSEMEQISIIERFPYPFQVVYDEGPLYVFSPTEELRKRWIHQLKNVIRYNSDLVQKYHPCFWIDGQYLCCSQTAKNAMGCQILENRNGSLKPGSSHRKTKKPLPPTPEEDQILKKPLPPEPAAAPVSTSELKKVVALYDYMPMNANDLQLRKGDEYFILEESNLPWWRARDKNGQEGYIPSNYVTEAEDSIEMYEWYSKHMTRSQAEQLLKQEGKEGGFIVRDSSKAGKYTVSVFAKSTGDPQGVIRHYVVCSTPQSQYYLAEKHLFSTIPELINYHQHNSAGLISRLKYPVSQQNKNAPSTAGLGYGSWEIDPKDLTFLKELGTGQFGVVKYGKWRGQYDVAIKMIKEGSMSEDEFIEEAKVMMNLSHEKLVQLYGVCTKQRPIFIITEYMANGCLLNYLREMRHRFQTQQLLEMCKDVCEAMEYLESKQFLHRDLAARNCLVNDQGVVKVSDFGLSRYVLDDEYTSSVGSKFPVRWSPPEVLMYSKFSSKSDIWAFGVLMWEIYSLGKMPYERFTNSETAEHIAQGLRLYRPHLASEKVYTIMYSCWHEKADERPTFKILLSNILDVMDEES

| IC50 (Btk (IC50)) [µM] | IC50 [1] [µM] | IC50 (read-out: Btk (IC50)) [µM] | Compound | IC50 [µM] |
| --- | --- | --- | --- | --- |
| 0.1 to 1 | 0.1 to 1 | – | C[C@H]1[C@H](N)CCCN1c1cnc(C(N)=O)c(Nc2ccc(C3CCN(C4CCCC4)CC3)cc2)n1 [Example 231, 5-((2S,3R)-3-amino-2-methylpiperidin-1-yl)-3-(4-(1-cyclopentylpiperidin-4-yl)phenylamino)pyrazine-2-carboxamide] | – |
| – | < 0.01 | < 0.01 | C[C@@H]1[C@H](NC(=O)N(C)C)CCCN1c1cnc(C(N)=O)c(Nc2ccc(C3CCN(C4CCCC4)CC3)cc2)n1 [Example 232, 3-(4-(1-cyclopentylpiperidin-4-yl)phenylamino)-5-((2R,3R)-3-(3,3-dimethylureido)-2-methylpiperidin-1-yl)pyrazine-2-carboxamide] | – |
| 0.1 to 1 | 0.1 to 1 | – | C[C@H]1[C@H](NC(=O)N(C)C)CCCN1c1cnc(C(N)=O)c(Nc2ccc(C3CCN(C4CCCC4)CC3)cc2)n1 [Example 233, 3-(4-(1-cyclopentylpiperidin-4-yl)phenylamino)-5-((2S,3R)-3-(3,3-dimethylureido)-2-methylpiperidin-1-yl)pyrazine-2-carboxamide] | – |
| – | < 0.01 | < 0.01 | CC[C@@H]1[C@H](NC(=O)N(C)C)CCCN1c1cnc(C(N)=O)c(Nc2ccc(C3CCN(C4CCC4)CC3)cc2)n1 [Example 236, 3-(4-(1-cyclobutylpiperidin-4-yl)phenylamino)-5-((2R,3R)-3-(3,3-dimethylureido)-2-ethylpiperidin-1-yl)pyrazine-2-carboxamide] | – |
| < 0.01 | < 0.01 | – | C[C@@H]1[C@H](NC(=O)N(C)C)CCCN1c1cnc(C(N)=O)c(Nc2ccc(C3CCN(C4CC4)CC3)cc2)n1 [Example 237, 3-(4-(1-cyclopropylpiperidin-4-yl)phenylamino)-5-((2R,3R)-3-(3,3-dimethylureido)-2-methylpiperidin-1-yl)pyrazine-2-carboxamide] | – |
| – | < 0.01 | < 0.01 | C[C@@H]1[C@H](NC(=O)N(C)C)CCCN1c1cnc(C(N)=O)c(Nc2ccc(C3CCN(C4CCC4)CC3)cc2)n1 [Example 238, 3-(4-(1-cyclobutylpiperidin-4-yl)phenylamino)-5-((2R,3R)-3-(3,3-dimethylureido)-2-methylpiperidin-1-yl)pyrazine-2-carboxamide] | – |
| – | < 0.01 | < 0.01 | C[C@@H]1[C@H](NC(=O)N(C)C)CCCN1c1cnc(C(N)=O)c(Nc2ccc(C3(C(F)(F)F)CC3)cc2)n1 [Example 239, 5-((2R,3R)-3-(3,3-dimethylureido)-2-methylpiperidin-1-yl)-3-(4-(1-(trifluoromethyl)cyclopropyl)phenylamino)pyrazine-2-carboxamide] | – |
| – | < 0.01 | < 0.01 | C[C@@H]1[C@H](NC(=O)N(C)C)CCCN1c1cnc(C(N)=O)c(Nc2ccc(C3(C#N)CC3)cc2)n1 [Example 240, 3-(4-(1-cyanocyclopropyl)phenylamino)-5-((2R,3R)-3-(3,3-dimethylureido)-2-methylpiperidin-1-yl)pyrazine-2-carboxamide] | – |
| – | < 0.01 | – | Cc1cc(Nc2nc(N3CCC[C@@H](NC(=O)N(C)C)[C@H]3C)cnc2C(N)=O)sn1 [Example 242, 5-((2R,3R)-3-(3,3-dimethylureido)-2-methylpiperidin-1-yl)-3-(3-methylisothiazol-5-ylamino)pyrazine-2-carboxamide] | – |
| – | < 0.01 | – | CC(C)Oc1ccc(Nc2nc(N3CCC[C@@H](NC(=O)N(C)C)[C@H]3C)cnc2C(N)=O)cc1 [Example 243, 5-((2R,3R)-3-(3,3-dimethylureido)-2-methylpiperidin-1-yl)-3-(4-isopropoxyphenylamino)pyrazine-2-carboxamide] | – |
| – | < 0.01 | – | C[C@@H]1[C@H](NC(=O)N(C)C)CCCN1c1cnc(C(N)=O)c(Nc2ccc(S(C)(=O)=O)cc2)n1 [Example 244, 5-((2R,3R)-3-(3,3-dimethylureido)-2-methylpiperidin-1-yl)-3-(4-(methylsulfonyl)phenylamino)pyrazine-2-carboxamide] | – |
| – | < 0.01 | < 0.01 | C[C@@H]1[C@H](NC(=O)N(C)C)CCCN1c1cnc(C(N)=O)c(Nc2ccc(C3(C#N)CCCC3)cc2)n1 [Example 248, 3-(4-(1-cyanocyclopentyl)phenylamino)-5-((2R,3R)-3-(3,3-dimethylureido)-2-methylpiperidin-1-yl)pyrazine-2-carboxamide] | – |
| – | < 0.01 | < 0.01 | C[C@@H]1[C@H](NC(=O)N(C)C)CCCN1c1cnc(C(N)=O)c(Nc2ccc(C3(C(N)=O)CCCC3)cc2)n1 [Example 249, 3-(4-(1-carbamoylcyclopentyl)phenylamino)-5-((2R,3R)-3-(3,3-dimethylureido)-2-methylpiperidin-1-yl)pyrazine-2-carboxamide] | – |
| – | < 0.01 | < 0.01 | C[C@@H]1[C@H](NC(=O)N(C)C)CCCN1c1cnc(C(N)=O)c(Nc2ccc(C3(C#N)CCN(C4CCCC4)CC3)cc2)n1 [Example 250, 3-(4-(4-cyano-1-cyclopentylpiperidin-4-yl)phenylamino)-5-((2R,3R)-3-(3,3-dimethylureido)-2-methylpiperidin-1-yl)pyrazine-2-carboxamide] | – |
| < 0.01 | < 0.01 | – | C[C@@H]1[C@H](N2CCN(C)C2=O)CCCN1c1cnc(C(N)=O)c(Nc2ccc(C3(C)CCNCC3)cc2)n1 [Example 252, 5-((2R,3R)-2-methyl-3-(3-methyl-2-oxoimidazolidin-1-yl)piperidin-1-yl)-3-(4-(4-methylpiperidin-4-yl)phenylamino)pyrazine-2-carboxamide] | – |
| – | < 0.01 | < 0.01 | CCC(=O)N1CCC(C)(c2ccc(Nc3nc(N4CCC[C@@H](N5CCN(C)C5=O)[C@H]4C)cnc3C(N)=O)cc2)CC1 [Example 255, 3-(4-(4-methyl-1-propionylpiperidin-4-yl)phenylamino)-5-((2R,3R)-2-methyl-3-(3-methyl-2-oxoimidazolidin-1-yl)piperidin-1-yl)pyrazine-2-carboxamide] | – |
| – | < 0.01 | < 0.01 | CN1CCN([C@@H]2CCCN(c3cnc(C(N)=O)c(Nc4ccc(C5CCN(C6CCCC6)CC5)cc4)n3)C2)C1=O [Example 256, (R)-3-(4-(1-cyclopentylpiperidin-4-yl)phenylamino)-5-(3-(3-methyl-2-oxoimidazolidin-1-yl)piperidin-1-yl)pyrazine-2-carboxamide] | – |
| – | < 0.01 | < 0.01 | CCN1CCC(c2ccc(Nc3nc(N4CCC[C@@H](N5CCN(C)C5=O)C4)cnc3C(N)=O)cc2)CC1 [Example 257, (R)-3-(4-(1-ethylpiperidin-4-yl)phenylamino)-5-(3-(3-methyl-2-oxoimidazolidin-1-yl)piperidin-1-yl)pyrazine-2-carboxamide] | – |
| – | < 0.01 | – | CN1CCN([C@@H]2CCCN(c3cnc(C(N)=O)c(Nc4ccc(C5CCN(C6CCC6)CC5)cc4)n3)C2)C1=O [Example 258] | – |
| – | < 0.01 | < 0.01 | CN1CCN([C@@H]2CCCN(c3cnc(C(N)=O)c(Nc4ccc(C5CCN(C6CC6)CC5)cc4)n3)C2)C1=O [Example 259, (R)-3-(4-(1-cyclopropylpiperidin-4-yl)phenylamino)-5-(3-(3-methyl-2-oxoimidazolidin-1-yl)piperidin-1-yl)pyrazine-2-carboxamide] | – |
| – | < 0.01 | < 0.01 | CN1CCN([C@@H]2CCCN(c3cnc(C(N)=O)c(Nc4ccc(N5CCS(=O)(=O)CC5)cc4)n3)C2)C1=O [Example 260, (R)-5-(3-(3-methyl-2-oxoimidazolidin-1-yl)piperidin-1-yl)-3-(4-(1,1-dioxothiomorpholino)phenylamino)pyrazine-2-carboxamide] | – |

| Compound | IC50 (Btk (IC50)) [µM] | IC50 [1] [µM] | IC50 (read-out: Btk (IC50)) [µM] | IC50 [µM] |
| --- | --- | --- | --- | --- |
| C[C@@H]1[C@H](NC(=O)N(C)C)CCCN1c1cnc(C(N)=O)c(Nc2ccc(C3(C(N)=O)CC3)cc2)n1 [Example 241, 3-(4-(1-carbamoylcyclopropyl)phenylamino)-5-((2R,3R)-3-(3,3-dimethylureido)-2-methylpiperidin-1-yl)pyrazine-2-carboxamide] | – | < 0.01 | – | – |
| C[C@@H]1[C@H](NC(=O)N(C)C)CCCN1c1cnc(C(N)=O)c(Nc2ccc(C3(C)CCN(C4CCC4)CC3)cc2)n1 [Example 246, 3-(4-(1-cyclobutyl-4-methylpiperidin-4-yl)phenylamino)-5-((2R,3R)-3-(3,3-dimethylureido)-2-methylpiperidin-1-yl)pyrazine-2-carboxamide] | – | < 0.01 | < 0.01 | – |
| C[C@@H]1[C@H](NC(=O)N(C)C)CCCN1c1cnc(C(N)=O)c(Nc2ccc(C3(C)CCN(C4CC4)CC3)cc2)n1 [Example 247, 3-(4-(1-cyclopropyl-4-methylpiperidin-4-yl)phenylamino)-5-((2R,3R)-3-(3,3-dimethylureido)-2-methylpiperidin-1-yl)pyrazine-2-carboxamide] | – | < 0.01 | < 0.01 | – |
| C[C@@H]1[C@H](NC(=O)N(C)C)CCCN1c1cnc(C(N)=O)c(Nc2ccc(C3(C(N)=O)CCN(C4CCCC4)CC3)cc2)n1 [Example 251, 3-(4-(4-carbamoyl-1-cyclopentylpiperidin-4-yl)phenylamino)-5-((2R,3R)-3-(3,3-dimethylureido)-2-methylpiperidin-1-yl)pyrazine-2-carboxamide] | – | – | < 0.01 | – |
| C[C@@H]1[C@H](N2CCN(C)C2=O)CCCN1c1cnc(C(N)=O)c(Nc2ccc(C3(C)CCN(C4CCCC4)CC3)cc2)n1 [Example 253, 3-(4-(1-cyclopentyl-4-methylpiperidin-4-yl)phenylamino)-5-((2R,3R)-2-methyl-3-(3-methyl-2-oxoimidazolidin-1-yl)piperidin-1-yl)pyrazine-2-carboxamide] | – | < 0.01 | – | – |
| CN1CCN([C@@H]2CCCN(c3cnc(C(N)=O)c(Nc4ccccc4)n3)C2)C1=O [Example 261, (R)-5-(3-(3-methyl-2-oxoimidazolidin-1-yl)piperidin-1-yl)-3-(phenylamino)pyrazine-2-carboxamide] | – | 0.01 to 0.1 | – | 0.01 to 0.1 |
| CN1CCN([C@@H]2CCCN(c3cnc(C(N)=O)c(Nc4ccc(C5(C(F)(F)F)CC5)cc4)n3)C2)C1=O [Example 262, (R)-5-(3-(3-methyl-2-oxoimidazolidin-1-yl)piperidin-1-yl)-3-(4-(1-(trifluoromethyl)cyclopropyl)phenylamino)pyrazine-2-carboxamide] | – | 0.01 to 0.1 | – | – |
